This is an account of results in patent publication EP4703354A1, “COMPOUND AS CCR6 ANTAGONIST, AND PHARMACEUTICAL COMPOSITION AND USE THEREOF” (Wuhan Createrna Science and Technology Co.,Ltd., priority 2023, dated 2024).

Data set [1] is described as follows: in vitro liver microsome metabolic stability, beagle dog. In kind it is in vitro ADME. Particulars: Beagle dog liver microsomes, 37°C. The method, then:
(§1) Preparation of working solutions for test compounds and standards: An appropriate amount of the compound was accurately weighed and dissolved in a corresponding volume of suitable solvent to prepare 1 mM stock solutions of the test compounds and standards. The stock solutions were then diluted with appropriate solvent to obtain 100 µM working solutions of the test compounds, ensuring that the DMSO content in the working solutions remained below 10%.
(§2) The internal standard compound testosterone (or tolbutamide) and its corresponding solvent, internal standard concentration (200 ng/mL), were selected based on the properties of the test compound.
(§3) • Solution A: 0.1 mol/L K2HPO4 (2.28 g K2HPO4·3H2O was dissolved in 100 mL of double-distilled water); • Solution B: 0.1 mol/L KH2PO4 (1.36 g KH2PO4 was dissolved in 100 mL of double-distilled water); • 80.2 mL of Solution A and 19.8 mL of Solution B were mixed thoroughly, and the pH was adjusted to 7.4.
(§4) 37.5 mg of glycine was weighed, dissolved in 100 mL of ultrapure water, and adjusted to pH 8.0 with NaOH.
(§5) 1.25 mg of glucose-6-phosphate dehydrogenase (400 U/mg) was weighed (the specific amount weighed was calculated based on the activity of the purchased glucose-6-phosphate dehydrogenase), dissolved in 1 mL of glycine buffer to a concentration of 500 U/mL, aliquoted into 20 µL per tube, and stored at -20°C for future use.
(§6) 7.83 mg of NADP, 0.06 mL of D-glucose-6-phosphate (260 mg/mL), and 10.17 mg of MgCl2·6H2O were precisely weighed.
(§7) The mixture was dissolved in 1 mL of pure water. The cofactor ratio composition: NADP 10 mM, D-glucose-6-phosphate 60 mM, MgCl2·6H2O 50 mM.
(§8) The reaction system (taking a 500 µL system as an example) was composed of the following solution ratios: 416.5 µL phosphate buffer, 5 µL compound working solution, 25 µL liver microsomes, 3.5 µL glucose-6-phosphate dehydrogenase, and 50 µL cofactor solution. The total incubation volume could be adjusted according to experimental requirements.
(§9) 416.5 µL of phosphate buffer was taken, 25 µL of liver microsomes, 3.5 µL of glucose-6-phosphate dehydrogenase, and 50 µL of cofactor solution were added, vortexed twice to mix, and preincubated in a 37°C water bath for 5 minutes. Then, 5 µL of the test compound working solution was added, vortexed twice to mix, each time for 2-3 seconds, and placed in a 37°C water bath to initiate the reaction, with two parallel samples set. At 0.5 min, 1 min, 2 min, 5 min, 15 min, and 30 min after the reaction, 50 µL of the mixture was taken and added to centrifuge tubes containing 200 µL of 0°C pre-cooled internal standard working solution to terminate the reaction, vortexed for 1 minute to mix, and centrifuged at 13,000 rpm for 10 minutes in a 4°C pre-cooled high-speed centrifuge. The supernatant was collected for analysis. After the compound was added and vortex-mixed, 50 µL of the mixture was rapidly transferred to a centrifuge tube containing 200 µL of a pre-cooled (0°C) internal standard working solution to terminate the reaction, vortex-mixed for 1 minute, and used as the relative zero-point sample (relative to the standard group). The sample was then placed into a 37°C water bath to initiate the reaction, and timing was started.
(§10) The sample analysis of the test compound was performed using the liquid chromatography-tandem mass spectrometry (LCMS/MS) method. The semi-quantitative determination was performed using the ratio of the analyte peak area to the internal standard peak area. The retention times of the analyte and internal standard, chromatogram acquisition, and chromatogram integration were processed using Analyst software.
(§11) The in vitro elimination rate constant k of the test compound and the control compound was determined by converting the ratio of the peak area of the test compound to the internal standard into the remaining rate, and T1/2 was then calculated according to the following formula. T1/2 = (Ln2)/(k) = (0.693)/(k) [formula] Table 3. […]

Data set [2] is described as follows: in vitro liver microsome metabolic stability, rat. In kind it is in vitro ADME. Particulars: Rat liver microsomes, 37°C. On the procedure:
as §1, §2, §3, §4, §5, §6, §7, §8, §9, §10, §11

Data set [3] is described as follows: in vitro liver microsome metabolic stability, human. It is filed as in vitro ADME. As to conditions: Human liver microsomes, 37°C. On the procedure:
as §1, §2, §3, §4, §5, §6, §7, §8, §9, §10, §11

In a further data set the target is T1, human CCR6 (Homo sapiens, UniProt P51684).
T1 construct: expressed in transfected cells; host or cells: HEK293
T1 sequence (P51684 1-374): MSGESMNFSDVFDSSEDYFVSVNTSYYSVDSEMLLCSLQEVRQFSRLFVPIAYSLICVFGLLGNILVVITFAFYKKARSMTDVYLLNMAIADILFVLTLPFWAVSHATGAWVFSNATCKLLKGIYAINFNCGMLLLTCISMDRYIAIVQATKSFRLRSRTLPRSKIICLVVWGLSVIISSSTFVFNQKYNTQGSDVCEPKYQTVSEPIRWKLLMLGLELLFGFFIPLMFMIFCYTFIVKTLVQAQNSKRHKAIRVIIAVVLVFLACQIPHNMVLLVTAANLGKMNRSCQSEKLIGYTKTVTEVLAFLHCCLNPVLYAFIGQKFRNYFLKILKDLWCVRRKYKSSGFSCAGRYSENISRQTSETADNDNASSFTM
As to the kind of experiment: human CCR6 calcium flux activity (FLIPR, HEK293 cells stably expressing human CCR6, CCL20 stimulation). It is filed as cell-based. Particulars: HEK293 cells stably expressing human CCR6, EC80 human MIP-3 alpha/CCL20; read-out: CCR6 inhibitory activity, IC50. The method, then:
The activity of the compounds was evaluated using HEK293 cells stably expressing human CCR6 via the FLIPR platform. A 384-well black cell culture plate (Greiner, 781946) was used, with a seeding density of 20,000 cells/well, and incubated overnight at 37°C in a 5% CO2 incubator. The culture medium in the cell plate wells was removed, and 20 µL of Fluo-4 Direct™ Calcium Assay Buffer (Invitrogen, F10471, Component C), 20 µL of 2× Fluo-4 Direct™ Calcium Assay Reagent (Invitrogen, F10471, Component A) working solution, and 10 µL of 6× test compound working solution were sequentially added to each well. The cell plate was incubated in a 37 °C, 5% CO2 incubator for 50 min, followed by a 10 min incubation at room temperature. Additionally, a 6×EC80 human MIP-3 alpha/CCL20 (MCE, HY-P7262) working solution was prepared. After the incubation was completed, 10 µL/well of the 6×EC80 human MIP-3 alpha/CCL20 working solution was transferred to the cell plate using a FLIPR instrument, and the fluorescence signal changes at an excitation wavelength of 494 nm and an emission wavelength of 516 nm were recorded over 90 seconds. The difference between the maximum fluorescence signal (RFUMax) and the minimum fluorescence signal (RFUMin) was used as the output signal. The compound inhibition rate and the log value of the compound concentration were calculated, and a four-parameter fitting analysis was performed using GraphPad Prism 8 software to obtain the IC50 value of the test compound.

Data set [4] can be described thus: in vivo pharmacokinetic study in SD rats. Particulars: male, rat, plasma; for bioavailability: 1 mg/kg PO vs 1 mg/kg IV, read-out: Oral bioavailability F (%); for AUC(0-t) / Cmax / half-life: 1 mg/kg. On the procedure:
2.2.1 Rats: SD rats, SPF grade, 6 rats per compound, male, body weight range 180-200 g.
2.2.2 Housing conditions: The animals were housed in an SPF-grade animal facility with free access to food and water, three per cage, under a 12/12-hour light/dark cycle (7:00 am/7:00 pm), at a temperature of 23 ± 3°C.
2.2.3 Drug preparation: The compound was precisely weighed, mixed with the required volume of 1% Tween 80, vortexed for 2 min, and then sonicated for 5 min until no visible particles remained. The mixture was subsequently stirred on a magnetic stirrer for 20 min, and the middle layer of the drug solution was collected for administration. For the IV group, the compound was accurately weighed, dissolved in the required volume of 50% PEG400, sonicated for 10 min, and vortexed until clear before administration.
The rats were randomly divided into 2 groups based on body weight, with 3 rats per compound per group. Group 1 was administered a single oral gavage dose (fasted), and Group 2 was administered a single tail vein bolus injection. Blood collection time points: for the po group, blood was collected at 0.167 h, 0.5 h, 1 h, 2 h, 3 h, 4 h, 6 h, and 8 h; for the iv group, blood was collected at 0.033 h, 0.167 h, 0.5 h, 1 h, 2 h, 4 h, 6 h, and 8 h.
After administration to the rats, blood was collected from the orbital venous plexus according to the sampling time points. Approximately 0.2-0.3 mL of blood was collected at each time point into anticoagulant EP tubes (containing 4 µL of EDTA-K2, 375 mg/mL, dried at 50°C). The tubes were slowly inverted up and down three times and stored in an ice box (for no more than 30 minutes). Centrifugation was performed at 4°C at 3000 × g for 10 minutes, and the supernatant was transferred to labeled EP tubes for bioanalytical testing. If testing could not be performed on the same day, the samples were stored at -80°C until analysis (care was taken to avoid multiple freeze/thaw cycles).
The data were analyzed using WinNonlin via a non-compartmental model to obtain PK parameters (Cmax, AUC0-last, AUCinf, T1/2, etc., selected based on different routes of administration). For specific data, please refer to Table 2. Table 2. PK experimental results of compounds in SD rats

Each structure is given as a SMILES string.

`Cc1cccnc1[C@H](Nc1c(Nc2ccnc(C(=O)N(C)C)c2O)c(=O)c1=O)[C@@]1(C)CC(F)(F)CO1` (single isomer, unassigned) [128A]: the “Liver microsome T1-2 (min) Beagle dog” value in data set [1] turned out to be 160.31 min. For the same compound, the “Liver microsome T1-2 (min) Rat” value in data set [2] came to 78.14 min. For the same compound, the “Liver microsome T1-2 (min) Human” value in data set [3] was 310.89 min.
For `Cc1cccnc1C(Nc1c(Nc2ccc(F)c(C(=O)N(C)C)c2O)c(=O)c1=O)[C@]1(C)CC(F)(F)CO1` (stereo partly drawn) [087A, 3-((2-((((S)-4,4-difluoro-2-methyltetrahydrofuran-2-yl)(3-methylpyridin-2-yl)methyl)amino)-3,4-dioxocyclobut-1-en-1-yl)amino)-6-fluoro-2-hydroxy-N,N-dimethylbenzamide] the same measures were 431.98 min, 120.46 min and 511.03 min.
The like results for `Cc1cccnc1C(Nc1c(Nc2ccc(F)c(C(=O)N(C)C)c2O)c(=O)c1=O)[C@@]1(C)CC(F)(F)CO1` (stereo partly drawn) [087B, 3-((2-((((R)-4,4-difluoro-2-methyltetrahydrofuran-2-yl)(3-methylpyridin-2-yl)methyl)amino)-3,4-dioxocyclobut-1-en-1-yl)amino)-6-fluoro-2-hydroxy-N,N-dimethylbenzamide] were, in that order, 567.51 min, 571.31 min and 369.68 min.
With `Cc1cccnc1[C@H](Nc1c(Nc2ccnc(C(=O)N(C)C)c2O)c(=O)c1=O)C12CC(C1)C2` [compound 077, (R)-4-((2-((bicyclo[1.1.1]pentan-1-yl(3-methylpyridin-2-yl)methyl)amino)-3,4-dioxocyclobut-1-en-1-yl)amino)-3-hydroxy-N,N-dimethylpicolinamide], at human CCR6, the IC50 came out at 0.0176 µM. Besides, in data set [4], the bioavailability was 39.8%. In data set [4] (IV), this compound registered an AUC(0-t) of 0.683 µg·h/mL and a Cmax of 2.28 µg/mL. In data set [4] (PO), the AUC(0-t) was determined as 0.272 µg·h/mL and the Cmax is 0.158 µg/mL.
With `Cc1cccnc1[C@H](Nc1c(Nc2ccnc(C(=O)N(C)C)c2O)c(=O)c1=O)C1(C)CC(F)(F)C1` [compound 079, (R)-4-((2-(((3,3-difluoro-1-methylcyclobutyl)(3-methylpyridin-2-yl)methyl)amino)-3,4-dioxocyclobut-1-en-1-yl)amino)-3-hydroxy-N,N-dimethylpicolinamide], on human CCR6, the IC50 is 0.0173 µM. Besides, the bioavailability in data set [4] was found to be 42.5%. In data set [4] (IV), this compound gave an AUC(0-t) of 1.18 µg·h/mL and a Cmax of 3.67 µg/mL. Further, in data set [4] (PO), the AUC(0-t) was 0.499 µg·h/mL, the highest level (Cmax) was 0.566 µg/mL and the half-life is 2.01 h.
In the case of `CC#CC(Nc1c(Nc2ccnc(C(=O)N(C)C)c2O)c(=O)c1=O)C1(C)CC(F)(F)CO1` (stereo not drawn) [compound 112, 4-((2-((1-(4,4-difluoro-2-methyltetrahydrofuran-2-yl)but-2-yn-1-yl)amino)-3,4-dioxocyclobut-1-en-1-yl)amino)-3-hydroxy-N,N-dimethylpicolinamide], the IC50 at human CCR6 is 0.165 µM. In addition, the “Liver microsome T1-2 (min) Rat” value in data set [2] is reported as 560.45 min.
For the compound `Cc1nccnc1[C@H](Nc1c(Nc2ccc(F)c(C(=O)N(C)C)c2O)c(=O)c1=O)C1(C)CCCC1` [compound 130, (R)-6-fluoro-2-hydroxy-N,N-dimethyl-3-((2-(((1-methylcyclopentyl)(3-methylpyrazin-2-yl)methyl)amino)-3,4-dioxocyclobut-1-en-1-yl)amino)benzamide], in data set [1], the “Liver microsome T1-2 (min) Beagle dog” value stood at 2270.89 min. Besides, in data set [2], the “Liver microsome T1-2 (min) Rat” value came out at 109.49 min. For the same compound, in data set [4], the bioavailability is 24%. In data set [4] (IV), this compound had an AUC(0-t) of 0.752 µg·h/mL, a Cmax of 5.53 µg/mL and a half-life of 0.22 h. In data set [4] (PO), this compound had an AUC(0-t) of 0.181 µg·h/mL, a Cmax of 0.158 µg/mL and a half-life of 2.79 h.
